Data set [1] deals with Human herpesvirus type 1 (HSV1). It is filed as cell-based.
Data set [2] deals with Human coxsackievirus type 9 (CA9). It is filed as cell-based.
For data set [3], the system named is Human respiratory syncytial virus, Long strain (RSV). It is filed as cell-based.
Data set [4] deals with Human rhinovirus type 14 (HRV14, major group). It counts as cell-based.
Data set [5] has as its system herpesviruses and influenza viruses. The settings on record: cited from earlier work.
The test system of data set [6] is BGM, HEp-2 and HeLa cells.
The conditions of data set [7]: in vivo; cited from earlier work.

Where a name gives a salt, the structure may show the parent alone.

Consider `CN1[C@@H]2CC[C@H]1CC(OC(=O)C(CO)c1ccccc1)C2.CN1[C@@H]2CC[C@H]1CC(OC(=O)C(CO)c1ccccc1)C2.O=S(=O)(O)O` (stereo partly shown) [Atropine sulphate, atropine sulphate], for which the percentage plaque inhibition in data set [1] is reported as 19.52/41.90%; in data set [2], 7.63/12.85%; in data set [3] it was 7.74/12.36%; in data set [4] it was 11.30/14.12%. Also, the “plaque inhibition of the individual substances” value in data set [1] is listed as “approximately 35%”.

Take `Cc1cc(C(C)(C)C)c(O)c(C)c1CC1=NCCN1` [OMZ, Oxymetazoline hydrochloride]: in data set [4], the reduction in infectivity is 50-60%.

For `Nc1nc2c(ncn2COCCO)c(=O)[nH]1` [aciclovir, Aciclovir], the reduction in infectivity in data set [1] is 50-60%.

Consider `CN1[C@@H]2CC[C@H]1C[C@@H](OC(=O)C(CO)c1ccccc1)C2` (stereo partly shown) [atropine], for which, in data set [5], the “concentration at which the maximum antiviral effect is achieved” value was 2 mM.

Consider `NC(=O)c1ncn([C@@H]2O[C@H](CO)[C@@H](O)[C@H]2O)n1` [ribavirin, Ribavirin], for which the reduction in infectivity in data set [3] is reported as 50-60%.

Turning to aconitine, the “non-cell-toxic concentration (start of dilution series)” value in data set [6] stood at 50 µg/mL. The percentage plaque inhibition in data set [1] is 3.17/11.22%; in data set [2] it was 8.40/10.69%; in data set [3], 9.01/16.56%; in data set [4], −1.14/2.84%. Besides, in data set [1], the “plaque inhibition of the individual substances” value was “approximately 8%”. The lethal dose result in data set [7] was “approximately 5 mg”.

The values above are taken from patent US9913861B2 (priority 2013, dated 2018).
